Legend:
Format in all cases: cell-based
BT-549 = test: NCI DTP in-vitro dose response, Breast Cancer
MDA-MB-435 = test: NCI DTP in-vitro dose response, Breast Cancer
MDA-MB-231/ATCC = test: NCI DTP in-vitro dose response, Breast Cancer
T-47D = test: NCI DTP in-vitro dose response, Breast Cancer
MDA-MB-468 = test: NCI DTP in-vitro dose response, Breast Cancer
NCI/ADR-RES = test: NCI DTP in-vitro dose response, Breast Cancer
HS 578T = test: NCI DTP in-vitro dose response, Breast Cancer
MCF7 = test: NCI DTP in-vitro dose response, Breast Cancer
OVCAR-5 = test: NCI DTP in-vitro dose response, Ovarian Cancer
SK-OV-3 = test: NCI DTP in-vitro dose response, Ovarian Cancer
IGROV1 = test: NCI DTP in-vitro dose response, Ovarian Cancer
OVCAR-3 = test: NCI DTP in-vitro dose response, Ovarian Cancer
OVCAR-4 = test: NCI DTP in-vitro dose response, Ovarian Cancer
OVCAR-8 = test: NCI DTP in-vitro dose response, Ovarian Cancer

For `CCc1nc2ccc3c(c2[nH]1)C(=O)c1ccccc1C3=O` [TABLE 4-9], which CC50 (BT-549) is on record?
Its CC50 is greater than 100 µM.

What about the TGI (BT-549) of the same molecule?
The TGI was greater than 1.00E−4.

And the “Percent Growth” value (BT-549; Log10 Concentration −4.0)?
The value was 15%.

What about the “Percent Growth” value (BT-549; Log10 Concentration −5.0) of the same molecule?
Its value is 60%.

What about the “Percent Growth” value (BT-549; Log10 Concentration −6.0) of the same molecule?
Its value is 95%.

And the “Percent Growth” value (BT-549; Log10 Concentration −7.0)?
The value was 100%.

What about the “Percent Growth” value (BT-549; Log10 Concentration −8.0) of the same molecule?
Its value is 101%.

What about the GI50 (BT-549; read-out: GI50) of the same molecule?
Its GI50 is 16.7 µM.

What about the CC50 (MDA-MB-435) of the same molecule?
The CC50 was greater than 100 µM.

What about the TGI (MDA-MB-435) of the same molecule?
The TGI was greater than 1.00E−4.

And the “Percent Growth” value (MDA-MB-435; Log10 Concentration −4.0)?
Its value is 37%.

What about the “Percent Growth” value (MDA-MB-435; Log10 Concentration −5.0) of the same molecule?
Its value is 66%.

What about the “Percent Growth” value (MDA-MB-435; Log10 Concentration −6.0) of the same molecule?
The value was 92%.

And the “Percent Growth” value (MDA-MB-435; Log10 Concentration −7.0)?
The value was 91%.

And the “Percent Growth” value (MDA-MB-435; Log10 Concentration −8.0)?
The value was 97%.

And the GI50 (MDA-MB-435; read-out: GI50)?
The GI50 was 36.5 µM.

What about the CC50 (MDA-MB-231/ATCC) of the same molecule?
The CC50 was greater than 100 µM.

What about the TGI (MDA-MB-231/ATCC) of the same molecule?
Its TGI is greater than 1.00E−4.

What about the “Percent Growth” value (MDA-MB-231/ATCC; Log10 Concentration −4.0) of the same molecule?
The value was 36%.

And the “Percent Growth” value (MDA-MB-231/ATCC; Log10 Concentration −5.0)?
Its value is 54%.

What about the “Percent Growth” value (MDA-MB-231/ATCC; Log10 Concentration −6.0) of the same molecule?
Its value is 90%.

What about the “Percent Growth” value (MDA-MB-231/ATCC; Log10 Concentration −7.0) of the same molecule?
The value was 95%.

And the “Percent Growth” value (MDA-MB-231/ATCC; Log10 Concentration −8.0)?
The value was 98%.

And the GI50 (MDA-MB-231/ATCC; read-out: GI50)?
Its GI50 is 16.6 µM.

What about the CC50 (T-47D) of the same molecule?
The CC50 was greater than 100 µM.

And the TGI (T-47D)?
Its TGI is greater than 1.00E−4.

And the “Percent Growth” value (T-47D; Log10 Concentration −4.0)?
The value was 10%.

What about the “Percent Growth” value (T-47D; Log10 Concentration −5.0) of the same molecule?
Its value is 32%.

And the “Percent Growth” value (T-47D; Log10 Concentration −6.0)?
The value was 78%.

And the “Percent Growth” value (T-47D; Log10 Concentration −7.0)?
The value was 94%.

And the “Percent Growth” value (T-47D; Log10 Concentration −8.0)?
Its value is 105%.

And the GI50 (T-47D; read-out: GI50)?
The GI50 was 4 µM.

What about the CC50 (MDA-MB-468) of the same molecule?
The CC50 was greater than 100 µM.

And the TGI (MDA-MB-468)?
Its TGI is 6.33E−5.

What about the “Percent Growth” value (MDA-MB-468; Log10 Concentration −4.0) of the same molecule?
The value was −7%.

And the “Percent Growth” value (MDA-MB-468; Log10 Concentration −5.0)?
Its value is 29%.

What about the “Percent Growth” value (MDA-MB-468; Log10 Concentration −6.0) of the same molecule?
The value was 79%.

And the “Percent Growth” value (MDA-MB-468; Log10 Concentration −7.0)?
The value was 89%.

What about the “Percent Growth” value (MDA-MB-468; Log10 Concentration −8.0) of the same molecule?
The value was 83%.

And the GI50 (MDA-MB-468; read-out: GI50)?
Its GI50 is 3.83 µM.

What about the CC50 (NCI/ADR-RES) of the same molecule?
The CC50 was greater than 100 µM.

What about the TGI (NCI/ADR-RES) of the same molecule?
The TGI was greater than 1.00E−4.

What about the “Percent Growth” value (NCI/ADR-RES; Log10 Concentration −4.0) of the same molecule?
Its value is 6%.

What about the “Percent Growth” value (NCI/ADR-RES; Log10 Concentration −5.0) of the same molecule?
The value was 51%.

And the “Percent Growth” value (NCI/ADR-RES; Log10 Concentration −6.0)?
Its value is 89%.

What about the “Percent Growth” value (NCI/ADR-RES; Log10 Concentration −7.0) of the same molecule?
Its value is 99%.

And the “Percent Growth” value (NCI/ADR-RES; Log10 Concentration −8.0)?
The value was 95%.

What about the GI50 (NCI/ADR-RES; read-out: GI50) of the same molecule?
The GI50 was 10.5 µM.

What about the CC50 (HS 578T) of the same molecule?
Its CC50 is greater than 100 µM.

And the TGI (HS 578T)?
The TGI was 2.67E−5.

What about the “Percent Growth” value (HS 578T; Log10 Concentration −4.0) of the same molecule?
The value was −32%.

What about the “Percent Growth” value (HS 578T; Log10 Concentration −5.0) of the same molecule?
The value was 24%.

And the “Percent Growth” value (HS 578T; Log10 Concentration −6.0)?
Its value is 56%.

What about the “Percent Growth” value (HS 578T; Log10 Concentration −7.0) of the same molecule?
Its value is 108%.

What about the “Percent Growth” value (HS 578T; Log10 Concentration −8.0) of the same molecule?
The value was 107%.

What about the GI50 (HS 578T; read-out: GI50) of the same molecule?
Its GI50 is 1.56 µM.

And the CC50 (MCF7)?
Its CC50 is greater than 100 µM.

What about the TGI (MCF7) of the same molecule?
Its TGI is 8.14E−5.

What about the “Percent Growth” value (MCF7; Log10 Concentration −4.0) of the same molecule?
The value was −4%.

What about the “Percent Growth” value (MCF7; Log10 Concentration −5.0) of the same molecule?
The value was 37%.

And the “Percent Growth” value (MCF7; Log10 Concentration −6.0)?
Its value is 54%.

What about the “Percent Growth” value (MCF7; Log10 Concentration −7.0) of the same molecule?
Its value is 76%.

And the “Percent Growth” value (MCF7; Log10 Concentration −8.0)?
The value was 85%.

And the GI50 (MCF7; read-out: GI50)?
Its GI50 is 1.68 µM.

Which results are given for `CCc1nc2ccc3c(c2[nH]1)C(=O)c1ccccc1C3=O` [TABLE 4-6]?
CC50 (OVCAR-5): > 100 µM; TGI (OVCAR-5): >1.00E−4; Percent Growth (OVCAR-5; Log10 Concentration −4.0): 45%; Percent Growth (OVCAR-5; Log10 Concentration −5.0): 85%; Percent Growth (OVCAR-5; Log10 Concentration −6.0): 94%; Percent Growth (OVCAR-5; Log10 Concentration −7.0): 91%; Percent Growth (OVCAR-5; Log10 Concentration −8.0): 88%; GI50 (OVCAR-5; read-out: GI50): 75.7 µM; CC50 (SK-OV-3): > 100 µM; TGI (SK-OV-3): >1.00E−4; Percent Growth (SK-OV-3; Log10 Concentration −4.0): 14%; Percent Growth (SK-OV-3; Log10 Concentration −5.0): 12%; Percent Growth (SK-OV-3; Log10 Concentration −6.0): 76%; Percent Growth (SK-OV-3; Log10 Concentration −7.0): 92%; Percent Growth (SK-OV-3; Log10 Concentration −8.0): 95%; GI50 (SK-OV-3; read-out: GI50): 2.55 µM; CC50 (IGROV1): > 100 µM; GI50 (IGROV1): 1.34 µM; TGI (IGROV1): 1.69E−5; Percent Growth (IGROV1; Log10 Concentration −4.0): −19%; Percent Growth (IGROV1; Log10 Concentration −5.0): 6%; Percent Growth (IGROV1; Log10 Concentration −6.0): 56%; Percent Growth (IGROV1; Log10 Concentration −7.0): 88%; Percent Growth (IGROV1; Log10 Concentration −8.0): 89%; CC50 (OVCAR-3): > 100 µM; TGI (OVCAR-3): >1.00E−4; Percent Growth (OVCAR-3; Log10 Concentration −4.0): 8%; Percent Growth (OVCAR-3; Log10 Concentration −5.0): 57%; Percent Growth (OVCAR-3; Log10 Concentration −6.0): 93%; Percent Growth (OVCAR-3; Log10 Concentration −7.0): 106%; Percent Growth (OVCAR-3; Log10 Concentration −8.0): 100%; GI50 (OVCAR-3; read-out: GI50): 14.1 µM; CC50 (OVCAR-4): > 100 µM; TGI (OVCAR-4): >1.00E−4; Percent Growth (OVCAR-4; Log10 Concentration −4.0): 15%; Percent Growth (OVCAR-4; Log10 Concentration −5.0): 37%; Percent Growth (OVCAR-4; Log10 Concentration −6.0): 83%; Percent Growth (OVCAR-4; Log10 Concentration −7.0): 96%; Percent Growth (OVCAR-4; Log10 Concentration −8.0): 98%; GI50 (OVCAR-4; read-out: GI50): 5.18 µM; CC50 (OVCAR-8): > 100 µM; TGI (OVCAR-8): >1.00E−4; Percent Growth (OVCAR-8; Log10 Concentration −4.0): 24%; Percent Growth (OVCAR-8; Log10 Concentration −5.0): 58%; Percent Growth (OVCAR-8; Log10 Concentration −6.0): 92%; Percent Growth (OVCAR-8; Log10 Concentration −7.0): 91%; Percent Growth (OVCAR-8; Log10 Concentration −8.0): 96%; GI50 (OVCAR-8; read-out: GI50): 17.7 µM

From patent publication US8445492B2, “Method for inhibiting growth of cancer cells and cell telomere and diseases of cell proliferation by using heteroannelated anthraquinone derivative compounds” (National Defense Medical Center, priority 2008, dated 2013)
